One assay has as its system Candida albicans. The arrangement: species or system Maus. The settings on record: in vivo; for Überlebenszeit (bez. auf Fluconazol = 100 % ): 50 mg/kg. The source says:
Als Beispiele für die systemische in vivo-Wirksamkeit der Verbindungen dient die systemische Candida albicans Infektion bei der Maus.
Ziel dieser Methode ist es, den Effekt von Präparaten auf eine systemische Candida albicans Infektion zu ermitteln. Die Infektion führt innerhalb von 2-4 Tagen zum Tod der Tiere.
Beschreibung der Methode: Albino Mäuse (NMRI, Männchen, 15-20 g Körpergewicht) werden intravenös mit Candida albicans Hefezellen infiziert (Stamm 200/175), die frisch auf Malzagar vorkultiviert wurden und in physiologischer Kochsalzlösung suspendiert wurden. Die Infektionsdosis, die in dem angegebenen Zeitrahmen zur Lethalität führt, wurde photometrisch eingestellt und enthielt eine Million Hefezellen pro Maus.
Die zu prüfenden Verbindungen werden entweder alleine oder in Kombination mit einem Standardantimykotikum verabreicht. Im durchgeführten Test wurde ein Kombinationspräparat verwendet, wobei als Standardantimykotikum Fluconazol (Fa. Pfizer) diente. Applikationswege sind je nach Substanzgruppe unterschiedlich, wobei der oralen Applikation der Vorzug gegeben wird. Die Mäuse werden 4 Wochen beobachtet, die Mortalität wird täglich registriert, und die Überlebenszeiten der einzelnen Gruppen werden gemittelt und untereinander verglichen. Gruppengröße beträgt durchschnittlich 10 Tiere.
Der Vergleich der Mittelwerte geschieht mit dem Students T Test.
Dosierungen: Fluconazol jeweils 8 x p.o. 50 mg/kg/Tag β-Hydroxy-ethylamin jeweils 14 x p.o. 50 mg/kg/Tag

The test system of assay [1] is liposomalen Phospholipase A1 von Säugern. The note with it: in-vitro-Test; Biochem. Pharmacol. 34, 521-24, 1985; cited from earlier work.
Assay [2] deals with Trichophyton mentagrophytes. Briefly: Percent killing of Trichophyton mentagrophytes in vitro. In kind it is cell-based. The settings on record: nach 14 h in aqua dest., read-out: %-Abtötung von Trichophyton mentagrophytes; for killing at 2.5 µg/mL: 2,5 µg/ml. As for the experimental part:
(Werte in %-Abtötung von Trichophyton mentagrophytes nach 14 h in aqua dest.)

In the next assay the test system is Plasmopara viticola. The assay can be described thus: Fungicidal activity on vine seedlings inoculated with Plasmopara viticola. It counts as in vivo, Weinsämlinge. The settings on record: untreated infected control = 100. The protocol: Weinsämlinge wurden ca. 6 Wochen nach der Aussaat mit wäßrigen Suspensionen der zu untersuchenden Verbindungen gleichmäßig benetzt. Nach dem Antrocknen des Spritzbelages wurden die Pflanzen mit einer Sporensuspension von Plasmopara viticola inokuliert und für kurze Zeit in eine Klimakammer (23 °C und 80-90 % rel. Luftfeuchte) gestellt. Nach einer Inkubationszeit von 7 Tagen wurden die Pflanzen zur Sporulation des Pilzes erneut für einige Stunden in die Klimakammer gestellt. Anschließend erfolgte die Auswertung des Befalls. Der Befallsgrad wird ausgedrückt in % befallener Blattfläche im Vergleich zu den unbehandelten, infizierten Kontrollpflanzen und ist in Tabelle 4 wiedergegeben.

[3] abbreviates: 125 ppm Wirkstoff (mg Wirkstoff/Liter Spritzbrühe).
Where [4] appears, read: 250 ppm Wirkstoff (mg Wirkstoff/Liter Spritzbrühe).
Setting [5] is: 500 ppm Wirkstoff (mg Wirkstoff/Liter Spritzbrühe).

Structures are written as SMILES. Like-named read-outs stand apart in the source and are kept apart here.

For `OC(Cn1cncn1)(Cn1cncn1)c1ccc(F)cc1F` [Fluconazol, reference compound], the “Überlebenszeit (bez. auf Fluconazol = 100 % )” value in the assay with Candida albicans (po) was determined as 100%.

As to `CC(C)NCC(O)COc1cccc2ccccc12` (centres unmarked) [Propranolol], in assay [1], the “Hemmwirkung gegenüber Phospholipase aus Leberzellen” value was “wirksamste Substanz”.

In the case of `Cc1cc(COc2ccc(Oc3ccc(Cl)cc3)cc2)n(O)c(=O)c1` [Rilopirox, reference compound], in assay [2], the killing at 5 µg/mL was 96.2%, the killing at 10 µg/mL was 100%, the killing at 20 µg/mL was determined as 100% and the killing at 40 µg/mL came out at 100%. Besides, in assay [2], the killing at 80 µg/mL is 100% and the killing at 2.5 µg/mL is 94.1%.

Consider `CC(C)CC(C)NCC(O)COc1ccccc1C1CCCC1` (centres unmarked) [Verbindung 1.10], for which the “Überlebenszeit (bez. auf Fluconazol = 100 % )” value with Candida albicans is 149%.

With `CC(C)(C)c1ccc(OCC(O)CNc2ccccc2)cc1` (centres unmarked) [Verbindung 1.16], in the assay with Candida albicans, the “Verlängerung der Überlebenszeit” value amounted to 65% and the “Überlebenszeit (bez. auf Fluconazol = 100 % )” value is 165%.

Turning to `COc1ccc(CC(C)(C)NCC(O)COc2ccccc2C2CCCC2)cc1` (centres unmarked) [Verbindung 1.18], in assay [2], the killing at 5 µg/mL was 95.7%, the killing at 10 µg/mL turned out to be 100%, the killing at 20 µg/mL came out at 100% and the killing at 40 µg/mL was 100%. Moreover, in assay [2], the killing at 80 µg/mL worked out at 100% and the killing at 2.5 µg/mL was found to be 79.3%.

Take `CC(C)(C)c1ccc(OCC(O)CNCc2cccs2)cc1` (centres unmarked) [Verbindung 1.32]: the “mit Plasmopara viticola befallene Blattfläche in %” value in the assay with Plasmopara viticola (setting [3]), in the assay on Plasmopara viticola (setting [4]) and with Plasmopara viticola (setting [5]) was 0% in each case.

`CCCCNCC(O)COc1ccc(C(C)(C)C)cc1` (centres unmarked) [Verbindung 1.37]: the “mit Plasmopara viticola befallene Blattfläche in %” value with Plasmopara viticola (setting [3]), with Plasmopara viticola (setting [4]) and with Plasmopara viticola (setting [5]) was 0% throughout.

(Values after patent EP0459298A2, “Use of substituted beta-hydroxyethylamines as potent inhibitors of a fungal exoenzyme” (HOECHST AKTIENGESELLSCHAFT, priority 1990, dated 1991).)
